In ChEMBL document CHEMBL1201862, “PubChem BioAssay data set” (2004):
Activity calls are given as the source filed them.

Tests used:
[1] = target: T1, Acyl-homoserine lactone acylase PvdQ (Pseudomonas aeruginosa (strain LESB58), UniProt Q9I194); assay: P. aeruginosa PvdQ acylase inhibitors, dose response, biochemical, fluorescence, plate reader and imaging, cherry-picks (AID 493231)
T1 sequence (Q9I194 whole entry): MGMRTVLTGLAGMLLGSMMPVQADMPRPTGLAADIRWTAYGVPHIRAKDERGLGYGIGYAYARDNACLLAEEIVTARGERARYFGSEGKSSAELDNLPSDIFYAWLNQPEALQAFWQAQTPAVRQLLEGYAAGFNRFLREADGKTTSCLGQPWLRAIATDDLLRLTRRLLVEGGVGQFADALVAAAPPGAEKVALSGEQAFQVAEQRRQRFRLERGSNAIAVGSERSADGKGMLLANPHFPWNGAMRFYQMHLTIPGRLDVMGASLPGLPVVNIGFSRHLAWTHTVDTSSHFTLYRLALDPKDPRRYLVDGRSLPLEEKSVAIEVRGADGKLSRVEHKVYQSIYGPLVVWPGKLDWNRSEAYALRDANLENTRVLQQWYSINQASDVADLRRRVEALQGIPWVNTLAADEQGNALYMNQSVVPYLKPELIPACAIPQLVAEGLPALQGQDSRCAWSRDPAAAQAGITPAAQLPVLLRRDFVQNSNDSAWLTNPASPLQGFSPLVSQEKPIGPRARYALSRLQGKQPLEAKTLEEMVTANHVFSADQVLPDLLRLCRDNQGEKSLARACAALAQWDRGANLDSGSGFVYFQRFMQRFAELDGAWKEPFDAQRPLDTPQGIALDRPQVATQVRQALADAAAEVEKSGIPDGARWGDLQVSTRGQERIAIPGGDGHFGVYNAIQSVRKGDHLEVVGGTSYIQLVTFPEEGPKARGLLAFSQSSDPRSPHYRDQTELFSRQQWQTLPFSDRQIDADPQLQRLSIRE

[2] = target: T2, Cannabinoid receptor 1 (Homo sapiens, UniProt P21554); assay: SAR analysis of antagonists of the Cannabinoid Receptor 1 using an Image-Based Assay - Set 4. [Related pubchem assays (depositor defined):AID2013, AID2026]; format: functional
[3] = target: T3, Cannabinoid receptor 2 (Homo sapiens, UniProt P34972); assay: SAR analysis of agonists of the Cannabinoid Receptor 2 using an Image-Based Assay - Set 3. [Related pubchem assays (depositor defined):AID2013, AID2026]; format: functional
[4] = target: T4, G-protein coupled receptor 35 (Homo sapiens, UniProt Q9HC97); assay: SAR analysis of Agonists of the GPR35 Receptor using an Image-Based Assay - Set 4. [Related pubchem assays (depositor defined):AID2013, AID2026]; format: functional
[5] = target: T2, Cannabinoid receptor 1; assay: SAR analysis of agonists of the Cannabinoid Receptor 1 using an Image-Based Assay - Set 4. [Related pubchem assays (depositor defined):AID2013, AID2026]; format: functional
[6] = target: T4, G-protein coupled receptor 35; assay: SAR analysis of Antagonists of the GPR35 Receptor using an Image-Based Assay - Set 6. [Related pubchem assays (depositor defined):AID2013, AID2026]; format: functional
[7] = target: T3, Cannabinoid receptor 2; assay: SAR analysis of antagonists of the Cannabinoid Receptor 2 using an Image-Based Assay - Set 3. [Related pubchem assays (depositor defined):AID2013, AID2026]; format: functional
[8] = target: G-protein coupled receptor 55 (Homo sapiens, UniProt Q9Y2T6); assay: SAR Analysis of Selective Antagonists of GPR55 using an Image-Based Assay - Set 4. [Related pubchem assays (depositor defined):AID2013, AID2026]; format: functional;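 further: antagonism of response to 5 µM lysophosphatidylinositol agonist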
[9] = cells; format: functional, cell-based
[10] = target: T5, Short transient receptor potential channel 4 (Mus musculus, UniProt Q9QUQ5); assay: mouse TRPC4 channel inhibitors, dose response, cell-based, HEK293 TRPC4/mu-opioid, Fluo-4 calcium (AID 434942); format: functional;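 further: potency of inhibitors blocking the TRPC4 calcium response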
T5 sequence (Q9QUQ5 whole entry): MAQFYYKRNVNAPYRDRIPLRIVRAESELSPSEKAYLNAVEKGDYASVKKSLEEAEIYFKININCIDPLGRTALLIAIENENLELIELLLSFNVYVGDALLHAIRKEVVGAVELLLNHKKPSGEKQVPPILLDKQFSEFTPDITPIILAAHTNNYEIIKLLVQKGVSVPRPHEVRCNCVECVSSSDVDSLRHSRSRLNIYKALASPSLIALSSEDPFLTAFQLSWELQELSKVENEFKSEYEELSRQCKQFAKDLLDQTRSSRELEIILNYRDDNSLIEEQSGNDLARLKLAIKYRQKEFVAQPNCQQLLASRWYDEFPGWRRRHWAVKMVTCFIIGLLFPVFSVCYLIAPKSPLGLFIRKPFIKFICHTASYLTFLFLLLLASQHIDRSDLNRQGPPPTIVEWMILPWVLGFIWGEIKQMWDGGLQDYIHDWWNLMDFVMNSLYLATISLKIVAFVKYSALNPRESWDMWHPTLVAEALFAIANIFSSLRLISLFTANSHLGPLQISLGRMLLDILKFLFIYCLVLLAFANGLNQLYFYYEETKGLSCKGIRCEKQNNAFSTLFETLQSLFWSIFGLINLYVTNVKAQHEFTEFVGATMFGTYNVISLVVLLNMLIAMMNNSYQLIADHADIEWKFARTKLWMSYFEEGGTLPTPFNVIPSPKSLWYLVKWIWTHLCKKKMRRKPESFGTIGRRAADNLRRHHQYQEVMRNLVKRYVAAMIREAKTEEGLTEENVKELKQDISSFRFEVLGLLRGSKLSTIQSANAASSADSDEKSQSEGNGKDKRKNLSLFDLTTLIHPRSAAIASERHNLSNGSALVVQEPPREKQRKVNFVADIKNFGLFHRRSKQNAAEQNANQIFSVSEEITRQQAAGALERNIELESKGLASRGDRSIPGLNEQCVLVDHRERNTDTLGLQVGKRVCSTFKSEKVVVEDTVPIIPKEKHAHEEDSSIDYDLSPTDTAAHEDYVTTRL

[11] = cells; format: functional, cell-based; remark: listed apart in the source
[12] = target: T6, Coagulation factor XII (Homo sapiens, UniProt P00748); format: functional;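 further: activated factor XIIa alpha cleaving a fluorogenic AMC peptide substrate; inhibitor potency from loss of enzyme activity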
T6 sequence (P00748 whole entry): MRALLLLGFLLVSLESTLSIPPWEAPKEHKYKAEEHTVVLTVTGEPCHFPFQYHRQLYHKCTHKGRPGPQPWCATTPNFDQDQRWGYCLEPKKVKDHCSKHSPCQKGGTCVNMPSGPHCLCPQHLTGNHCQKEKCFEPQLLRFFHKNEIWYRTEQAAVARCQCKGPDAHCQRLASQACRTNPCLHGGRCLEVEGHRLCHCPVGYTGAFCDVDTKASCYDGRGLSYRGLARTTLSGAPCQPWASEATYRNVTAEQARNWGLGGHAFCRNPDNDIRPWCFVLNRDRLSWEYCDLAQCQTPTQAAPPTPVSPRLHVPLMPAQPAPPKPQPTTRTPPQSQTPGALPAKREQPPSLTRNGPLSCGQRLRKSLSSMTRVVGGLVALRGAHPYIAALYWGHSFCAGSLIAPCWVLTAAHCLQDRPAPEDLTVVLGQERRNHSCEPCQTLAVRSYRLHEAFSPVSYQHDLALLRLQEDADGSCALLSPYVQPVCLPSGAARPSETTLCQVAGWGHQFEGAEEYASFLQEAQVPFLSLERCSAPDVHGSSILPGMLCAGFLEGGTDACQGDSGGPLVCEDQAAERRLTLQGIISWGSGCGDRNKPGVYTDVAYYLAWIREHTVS

[13] = target: T7, Streptokinase A (Streptococcus pyogenes serotype M1, UniProt P10520); assay: S. pyogenes streptokinase expression inhibitors, potency, dose response, plasminogen activation absorbance, OD405 (AID 1914); format: functional, Streptococcus pyogenes M1 GAS;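 further: secreted streptokinase activity via plasminogen activation per viability signal from cell pellet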
T7 sequence (P10520 whole entry): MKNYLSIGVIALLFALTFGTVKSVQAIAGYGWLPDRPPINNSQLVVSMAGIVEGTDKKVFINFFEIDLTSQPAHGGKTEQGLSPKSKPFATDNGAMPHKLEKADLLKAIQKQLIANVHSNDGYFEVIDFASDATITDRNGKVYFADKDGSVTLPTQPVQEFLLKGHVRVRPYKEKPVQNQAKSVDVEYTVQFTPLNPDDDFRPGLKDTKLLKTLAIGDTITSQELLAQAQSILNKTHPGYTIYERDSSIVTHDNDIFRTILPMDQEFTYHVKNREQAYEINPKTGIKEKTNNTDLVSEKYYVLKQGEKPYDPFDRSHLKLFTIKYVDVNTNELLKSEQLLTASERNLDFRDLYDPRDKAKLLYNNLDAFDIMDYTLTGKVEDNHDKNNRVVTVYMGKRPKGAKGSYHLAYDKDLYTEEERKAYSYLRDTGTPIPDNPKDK

[14] = test system: Streptococcus; assay: Group A Streptococcus viability loss, dose response, counter-screen for streptokinase expression inhibitor project, luminescence, BacTiterGlo (AID 1915); format: functional, organism-based;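 further: potency for reduction of bacterial viability or growth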
[15] = target: T8, Probable nicotinate-nucleotide adenylyltransferase (Staphylococcus aureus (strain N315), UniProt P65502); format: functional, Staphylococcus aureus subsp. aureus N315; conditions: read-out: IC50_Mean;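 on IC50 Mean: confirmatory dose-response retesting of NadD inhibitor hits first found in an ultra-high-throughput screen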
[16] = target: T8, Probable nicotinate-nucleotide adenylyltransferase; format: functional, Staphylococcus aureus subsp. aureus N315
[17] = test system: Streptococcus sp. 'group A'; assay: growth inhibition of control SK(-) GAS strain, dose response, counter-screen for streptokinase expression inhibitor project, luminescence, kanamycin, BacTiterGlo, confirmation (AID 1900); format: functional, organism-based
[18] = target: T9, Lytic switch protein BZLF1 (Epstein-Barr virus (strain B95-8) (HHV-4) (Human herpesvirus 4), UniProt P03206); assay: EBV ZTA inhibitors, dose response, counter-screen for EBNA-1 inhibitor project, biochemical, fluorescence polarization, Epstein-Barr virus, 1536-well (AID 2377); design: species or system human gammaherpesvirus 4;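 further: fluorescence polarization of Cy5-labelled ZRE DNA probe bound by purified Zta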
T9 sequence (P03206 whole entry): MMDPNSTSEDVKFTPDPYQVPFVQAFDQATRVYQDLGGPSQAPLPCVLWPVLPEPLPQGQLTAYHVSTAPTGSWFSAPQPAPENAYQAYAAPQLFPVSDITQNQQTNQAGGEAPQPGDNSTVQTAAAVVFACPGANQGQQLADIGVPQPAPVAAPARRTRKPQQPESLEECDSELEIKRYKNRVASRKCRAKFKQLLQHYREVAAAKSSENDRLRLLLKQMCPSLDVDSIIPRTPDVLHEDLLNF

[19] = target: T10, Epstein-Barr nuclear antigen 1 (Epstein-Barr virus (strain B95-8) (HHV-4) (Human herpesvirus 4), UniProt P03211); assay: EBNA-1 inhibitors, dose response, biochemical, fluorescence polarization, 1536-well (AID 2381); design: species or system human gammaherpesvirus 4;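 further: fluorescence polarization of a Cy5 DNA probe bound by EBNA-1 protein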
T10 sequence (P03211 whole entry): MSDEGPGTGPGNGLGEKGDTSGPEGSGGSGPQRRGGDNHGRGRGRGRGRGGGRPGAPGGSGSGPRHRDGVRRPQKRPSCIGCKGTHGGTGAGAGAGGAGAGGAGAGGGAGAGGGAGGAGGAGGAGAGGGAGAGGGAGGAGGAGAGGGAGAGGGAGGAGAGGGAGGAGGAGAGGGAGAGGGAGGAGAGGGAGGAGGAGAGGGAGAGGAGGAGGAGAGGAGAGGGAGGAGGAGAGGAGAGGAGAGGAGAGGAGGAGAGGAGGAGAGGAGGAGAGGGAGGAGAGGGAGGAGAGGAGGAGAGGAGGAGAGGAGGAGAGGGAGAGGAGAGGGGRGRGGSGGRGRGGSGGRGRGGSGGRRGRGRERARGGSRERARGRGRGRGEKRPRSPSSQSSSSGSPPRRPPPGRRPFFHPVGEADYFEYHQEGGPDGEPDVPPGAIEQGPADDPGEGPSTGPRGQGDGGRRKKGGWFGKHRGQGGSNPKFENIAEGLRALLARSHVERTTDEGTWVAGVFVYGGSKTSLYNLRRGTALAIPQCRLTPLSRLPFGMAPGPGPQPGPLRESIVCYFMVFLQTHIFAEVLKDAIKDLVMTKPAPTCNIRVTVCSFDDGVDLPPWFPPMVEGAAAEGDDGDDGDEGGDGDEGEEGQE

T3 sequence (P34972 whole entry): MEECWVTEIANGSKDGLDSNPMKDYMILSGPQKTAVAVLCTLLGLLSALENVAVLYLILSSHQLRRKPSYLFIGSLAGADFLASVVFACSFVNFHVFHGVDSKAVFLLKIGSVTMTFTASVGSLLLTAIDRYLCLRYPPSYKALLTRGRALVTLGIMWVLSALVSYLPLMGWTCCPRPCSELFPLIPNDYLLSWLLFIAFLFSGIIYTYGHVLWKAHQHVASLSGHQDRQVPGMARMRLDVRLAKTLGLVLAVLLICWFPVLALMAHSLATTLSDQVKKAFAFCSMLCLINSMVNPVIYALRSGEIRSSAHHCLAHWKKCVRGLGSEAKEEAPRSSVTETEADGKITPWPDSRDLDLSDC
T4 sequence (Q9HC97 whole entry): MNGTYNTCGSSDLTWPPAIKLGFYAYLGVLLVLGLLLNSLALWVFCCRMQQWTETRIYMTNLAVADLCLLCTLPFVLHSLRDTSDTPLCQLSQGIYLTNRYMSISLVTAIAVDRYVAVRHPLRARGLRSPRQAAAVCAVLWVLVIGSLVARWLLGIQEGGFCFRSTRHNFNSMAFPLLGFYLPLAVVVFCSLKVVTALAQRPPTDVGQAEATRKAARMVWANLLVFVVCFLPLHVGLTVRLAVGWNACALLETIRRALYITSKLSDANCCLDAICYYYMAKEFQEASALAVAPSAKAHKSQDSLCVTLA
T2 sequence (P21554 whole entry): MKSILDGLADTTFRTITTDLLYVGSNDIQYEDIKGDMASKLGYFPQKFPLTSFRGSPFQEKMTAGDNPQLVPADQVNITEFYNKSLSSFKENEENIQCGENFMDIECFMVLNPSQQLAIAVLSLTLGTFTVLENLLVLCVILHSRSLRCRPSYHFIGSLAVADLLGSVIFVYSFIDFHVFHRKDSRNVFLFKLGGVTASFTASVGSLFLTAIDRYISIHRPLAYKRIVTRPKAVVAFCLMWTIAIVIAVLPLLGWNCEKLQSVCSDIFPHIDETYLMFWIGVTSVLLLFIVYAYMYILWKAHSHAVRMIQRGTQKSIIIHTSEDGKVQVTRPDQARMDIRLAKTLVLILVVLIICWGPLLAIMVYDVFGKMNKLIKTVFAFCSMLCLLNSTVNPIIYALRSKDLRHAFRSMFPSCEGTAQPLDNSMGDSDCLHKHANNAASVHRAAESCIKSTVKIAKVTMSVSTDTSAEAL
Sequence of G-protein coupled receptor 55 (Q9Y2T6 whole entry): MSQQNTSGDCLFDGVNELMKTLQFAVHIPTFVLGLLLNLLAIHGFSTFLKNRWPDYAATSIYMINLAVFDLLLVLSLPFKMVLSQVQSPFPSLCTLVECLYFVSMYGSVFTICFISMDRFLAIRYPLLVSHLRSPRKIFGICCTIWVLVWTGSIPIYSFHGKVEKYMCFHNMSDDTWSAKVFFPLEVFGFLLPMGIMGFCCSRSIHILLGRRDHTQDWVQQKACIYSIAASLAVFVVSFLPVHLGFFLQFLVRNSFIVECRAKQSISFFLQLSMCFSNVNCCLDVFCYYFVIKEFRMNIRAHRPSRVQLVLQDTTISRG
T8 sequence (P65502 whole entry): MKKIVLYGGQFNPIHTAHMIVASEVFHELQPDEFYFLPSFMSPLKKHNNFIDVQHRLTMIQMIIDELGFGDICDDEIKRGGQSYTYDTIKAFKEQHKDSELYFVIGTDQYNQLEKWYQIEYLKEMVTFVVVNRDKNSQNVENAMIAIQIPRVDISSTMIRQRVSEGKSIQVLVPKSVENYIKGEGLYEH

SMILES	IC50 [2]	EC50 [3]	EC50 [4]	EC50 [5]	IC50 [6]	IC50 [7]	IC50 [8]	also measured
COc1ccc(CC(C)Nc2cccc(F)c2)cc1 (centres undefined)	–	–	–	–	–	–	–	AC50 [1]: 14.5 µM (active)
CCN(CC)S(=O)(=O)c1ccc(NC(=O)c2cc(-c3ccccc3)nc3ccccc23)cc1	0.352 µM (active)	> 32 µM (inactive)	> 32 µM (inactive)	> 32 µM (inactive)	> 32 µM (inactive)	> 10.8 µM (inactive)	> 32 µM (inactive)	–
O=C(NC1CCCCCCC1)c1cc(F)c(F)cc1Cl	–	–	–	–	–	–	–	AC50 [1]: 52.8 µM (active)
Cc1nn(C(=O)c2cccnc2)c(C)c1Sc1ccccc1	–	–	–	–	–	–	–	EC50 [9]: > 350 µM (not active); EC50 [10]: 3.35 µM (active); EC50 [11]: > 350 µM (not active)
Cc1ccc(-c2cc(C(=O)Nc3ccc(S(=O)(=O)Nc4cc(C)on4)cc3)c3ccccc3n2)c(C)c1	9.14 µM (active)	> 32 µM (inactive)	> 32 µM (inactive)	> 32 µM (inactive)	> 32 µM (inactive)	> 32 µM (inactive)	> 32 µM (inactive)	IC50 [12]: > 50 µM (inactive); EC50 [13]: 9.4 µM (active); EC50 [14]: 25.2 µM (active); IC50 [15]: 15.4 µM (active); IC50 [16]: 4.38 µM (active); EC50 [17]: 12.1 µM (active)
Cc1nc(N2CCN(C(=O)c3ccc4c(c3)OCCO4)CC2)c2c3c(sc2n1)CCCC3	3.36 µM (active)	> 32 µM (inactive)	> 32 µM (inactive)	> 32 µM (inactive)	> 32 µM (inactive)	24.2 µM (inactive)	21.4 µM (inactive)	–
CN1C(=O)N(C)C2(c3ccccc3)Nn3c(s/c(=C/c4ccco4)c3=O)=NC12c1ccccc1 (centres undefined)	–	–	–	–	–	–	–	IC50 [18]: > 111 µM (not active); IC50 [19]: > 5.47 µM (active)
